Reference: patent US6656888B1, “Biodegradable two-cycle engine oil compositions, grease compositions, and ester base stocks use therein” (Cognis Corporation, priority 1992, dated 2003)

Experiments:
Format in all cases: physicochemical
Pour Point, ASTM D-97 = assay: Pour Point, ASTM D-97
[1] = Kinematic viscosity, ASTM D-445
Flash Point, ASTM D-92 = assay: Flash Point, ASTM D-92

**Q.** Which results are given for “trimethylolpropane trioleate [EMERY® 2964]”?
**A.** Pour Point, ° C. (Pour Point, ASTM D-97): −40 °C; Viscosity, cSt 40° C. ([1]; 40° C.): 48.43 cSt; Viscosity, cSt 100° C. ([1]; 100° C.): 10.17 cSt; Flash Point, ° C. (Flash Point, ASTM D-92): 312 °C
